Measurements as given in patent publication EP4596548A1, “NURR1 MODULATORS” (Ludwig-Maximilians-Universität, priority 2024, dated 2025).
Values joined by “and” are separate entries in the source; they are usually repeats but may differ in a detail not shown here. Equal values may be shown once. “Also recorded” adds a separate entry of the source. Read-outs that look alike come from different tables or passages of the source.

Tests used:
Nurr1 = Nurr1 (Homo sapiens, UniProt P43354); assay: Gal4-Nurr1 hybrid reporter gene assay in HEK293T cells; assay type: cell-based; parameters: expressed in transfected cells; host or cells: HEK293T; conditions: for max. activation: maximum effect vs. 0.1% DMSO control; for max. activation / EC50: mean±SD, n≥3; for EC50: Gal4-Nurr1 hybrid reporter gene assay
Sequence of Nurr1 (P43354 360-595 limits assumed): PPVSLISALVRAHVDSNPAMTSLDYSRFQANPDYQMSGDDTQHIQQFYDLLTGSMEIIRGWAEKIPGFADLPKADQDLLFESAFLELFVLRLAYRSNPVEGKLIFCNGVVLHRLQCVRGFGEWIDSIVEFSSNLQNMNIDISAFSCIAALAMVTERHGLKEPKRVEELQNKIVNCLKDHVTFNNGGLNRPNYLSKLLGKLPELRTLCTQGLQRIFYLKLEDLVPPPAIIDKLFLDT
Protocol: (§1) Hybrid reporter gene assays. Nurr1 modulation was determined in a Gal4 hybrid reporter gene assay in HEK293T cells (German Collection of Microorganisms and Cell Culture GmbH, DSMZ) using pFR-Luc (Stratagene, La Jolla, CA, USA; reporter), pRL-SV40 (Promega, Madison, WI, USA; internal control) and pFA-CMV-hNurr1-LBD^14, coding for the hinge region and ligand binding domain of the canonical isoform of human Nurr1. […] After 24 h, medium was changed to Opti-MEM without supplements and cells were transiently transfected using Lipofectamine LTX reagent (Invitrogen, Carlsbad, CA, USA) according to the manufacturer's protocol. Five hours after transfection, cells were incubated with the test compounds in Opti-MEM supplemented with penicillin (100 U/mL), streptomycin (100 µg/mL) and 0.1% DMSO for 16 h before luciferase activity was measured using the Dual-Glo Luciferase Assay System (Promega) according to the manufacturer's protocol on a Tecan Spark luminometer (Tecan Deutschland GmbH, Crailsheim, Germany). Firefly luminescence was divided by Renilla luminescence and multiplied by 1000 resulting in relative light units (RLU) to normalize for transfection efficiency and cell growth. Fold activation was obtained by dividing the mean RLU of test compound by the mean RLU of the untreated control. All samples were tested in at least three biologically independent experiments in duplicates. For dose-response curve fitting and calculation of EC50 values, the equation "[Agonist] vs. response -- Variable slope (four parameters)" was used in GraphPad Prism (version 7.00, GraphPad Software, La Jolla, CA, USA). Selectivity profiling was performed with identical procedures using pFA-CMV-Nur77-LBD^14, pFA-CMV-NOR-1-LBD^14, pFA-CMV-THRα-LBD^39, pFA-CMV-RARα-LBD^40, pFA-CMV-PPARα-LBD^41, pFA-CMV-PPARγ-LBD^41, pFA-CMV-PPARδ-LBD^41, pFA-CMV-LXRα-LBD^37, pFA-CMV-FXR-LBD^42 and pFA-CMV-hRXRα-LBD^43.

Nurr1 LBD = target: T1, Nurr1 LBD (Homo sapiens, UniProt P43354); assay: Isothermal titration calorimetry (ITC); assay type: binding; conditions: ITC at 25°C
T1 construct: Nurr1 LBD protein (10-30 µM, expressed as described previously^21); made in house
T1 sequence (P43354 360-595 limits assumed): as above
Protocol: Isothermal Titration Calorimetry (ITC). ITC experiments were conducted on an Affinity ITC instrument (TA Instruments, New Castle, DE) at 25°C with a stirring rate of 75 rpm. Nurr1 LBD protein (10-30 µM, expressed as described previously^21) in buffer (20 mM Tris pH 7.5, 100 mM NaCl, 5% glycerol) containing 1-4% DMSO was titrated with the test compounds (60-150 µM in the same buffer containing 1-4% DMSO) in 26 injections (1x 1 µL, 25x 3-4 µL) with an injection interval of 150 s. As control experiments, the test compounds were titrated to the buffer, and the buffer was titrated to the Nurr1 LBD protein under otherwise identical conditions. Results were analyzed using NanoAnalyze software (version 3.11.0, TA Instruments, New Castle, DE) with independent binding models.

Nur77 = target: T2, Nur77 (Homo sapiens, UniProt P22736); assay: Gal4 hybrid reporter gene assay, selectivity profiling (Nur77); assay type: cell-based
T2 construct: expressed in transfected cells; host or cells: HEK293T
T2 sequence (P22736 360-595 limits assumed): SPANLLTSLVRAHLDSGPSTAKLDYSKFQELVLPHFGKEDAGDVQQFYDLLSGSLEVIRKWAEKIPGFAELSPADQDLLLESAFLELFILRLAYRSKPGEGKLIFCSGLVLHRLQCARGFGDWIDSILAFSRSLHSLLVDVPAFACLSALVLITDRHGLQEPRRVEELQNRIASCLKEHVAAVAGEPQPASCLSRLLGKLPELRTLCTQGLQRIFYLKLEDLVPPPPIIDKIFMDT
Protocol: as §1, with “For dose-response curve fitting and calculation of EC50 values, the equation "[Agonist] vs. response -- Variable slope (four parameters)" was used in GraphPad Prism (version 7.00, GraphPad Software, La Jolla, CA, USA). Selectivity profiling was performed with identical procedures using pFA-CMV-Nur77-LBD^14, pFA-CMV-NOR-1-LBD^14, pFA-CMV-THRα-LBD^39, pFA-CMV-RARα-LBD^40, pFA-CMV-PPARα-LBD^41, pFA-CMV-PPARγ-LBD^41, pFA-CMV-PPARδ-LBD^41, pFA-CMV-LXRα-LBD^37, pFA-CMV-FXR-LBD^42 and pFA-CMV-hRXRα-LBD^43.” left out

[1] = system: THRα, RARα, PPARα, PPARγ, PPARδ, LXRα, FXR, RXRα; assay: Selectivity screening on nuclear receptors outside the NR4A family (Gal4 hybrid reporter gene assays); assay type: cell-based
Protocol: as §1, with “For dose-response curve fitting and calculation of EC50 values, the equation "[Agonist] vs. response -- Variable slope (four parameters)" was used in GraphPad Prism (version 7.00, GraphPad Software, La Jolla, CA, USA). Selectivity profiling was performed with identical procedures using pFA-CMV-Nur77-LBD^14, pFA-CMV-NOR-1-LBD^14, pFA-CMV-THRα-LBD^39, pFA-CMV-RARα-LBD^40, pFA-CMV-PPARα-LBD^41, pFA-CMV-PPARγ-LBD^41, pFA-CMV-PPARδ-LBD^41, pFA-CMV-LXRα-LBD^37, pFA-CMV-FXR-LBD^42 and pFA-CMV-hRXRα-LBD^43.” left out

Nurr1 homodimer (NurRE) = target: T3, Nurr1 homodimer (NurRE) (Homo sapiens, UniProt P43354); assay: Full-length Nurr1 reporter gene assay, response element NurRE; assay type: cell-based
T3 construct: The full length human nuclear receptor Nurr1 (pcDNA3.1-hNurr1-NE; Addgene plasmid #102363); host or cells: HEK293T
T3 sequence (P43354 whole entry): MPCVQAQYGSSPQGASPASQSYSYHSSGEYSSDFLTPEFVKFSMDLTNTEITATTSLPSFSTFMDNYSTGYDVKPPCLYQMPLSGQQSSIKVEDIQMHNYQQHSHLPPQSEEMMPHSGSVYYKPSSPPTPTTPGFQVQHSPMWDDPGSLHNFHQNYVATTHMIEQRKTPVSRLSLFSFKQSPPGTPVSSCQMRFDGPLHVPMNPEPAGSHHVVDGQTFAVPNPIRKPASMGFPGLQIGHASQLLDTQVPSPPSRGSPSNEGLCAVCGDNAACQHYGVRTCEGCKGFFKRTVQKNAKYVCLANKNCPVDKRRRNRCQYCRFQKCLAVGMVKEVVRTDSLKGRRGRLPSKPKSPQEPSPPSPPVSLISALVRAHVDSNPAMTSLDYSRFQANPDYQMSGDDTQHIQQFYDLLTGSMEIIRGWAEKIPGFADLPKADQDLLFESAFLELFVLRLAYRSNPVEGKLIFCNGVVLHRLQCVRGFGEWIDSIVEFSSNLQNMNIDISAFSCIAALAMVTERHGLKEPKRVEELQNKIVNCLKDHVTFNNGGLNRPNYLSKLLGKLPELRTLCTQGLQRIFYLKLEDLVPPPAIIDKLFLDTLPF
Source text: (§2) Full-length Nurr1 reporter gene assays. Activation of full length human Nurr1 was studied in transiently transfected HEK293T cells using the reporter plasmids pFR-Luc-NBRE^14, pFR-Luc-POMC^14 or pFR-Luc-DR5^14 each containing one copy of the respective human Nurr1 response element NBRE Nl3, NurRE, or DR5. The full length human nuclear receptor Nurr1 (pcDNA3.1-hNurr1-NE; Addgene plasmid #102363) and, for DR5, RXRα (pSG5-hRXR)^44 were overexpressed. pRL-SV40 (Promega) was used for normalization of transfection efficacy and to observe test compound toxicity. […] After 24 h, medium was changed to Opti-MEM without supplements and cells were transiently transfected using Lipofectamine LTX reagent (invitrogen) according to the manufacturer's protocol. Five hours after transfection, cells were incubated with the test compounds in Opti-MEM supplemented with penicillin (100 U/mL), streptomycin (100 µg/mL) and 0.1% DMSO for 16 h before luciferase activity was measured using the Dual-Glo Luciferase Assay System (Promega) according to the manufacturer's protocol on a Tecan Spark luminometer (Tecan Deutschland GmbH). Firefly luminescence was divided by Renilla luminescence and multiplied by 1000 resulting in relative light units (RLU) to normalize for transfection efficiency and cell growth. […]

[2] = Determination of aqueous solubility; assay type: physicochemical; conditions: water, 24 h, 25°C
Protocol: Determination of aqueous solubility. […] The mixture was agitated in a VWR Thermal Shake lite (VWR International GmbH, Darmstadt, Germany) for 24 h at 600 rpm and constant temperature of 25°C. The supersaturated mixtures were subsequently centrifuged at 23.300 rpm for 15 min (25 °C). Part of the supernatant was taken off for quantification by UV absorbance at 312 nm with external calibration. The external calibration samples contained 1% DMSO and the test samples were spiked with DMSO to 1% concentration right before the measurement. Absorbance was measured with a Tecan Spark luminometer (Tecan Deutschland GmbH, Crailsheim, Germany). The solubility test was repeated in three independent experiments, […]

Nurr1 monomer (NBRE) = target: T4, Nurr1 monomer (NBRE) (Homo sapiens, UniProt P43354); assay: Full-length Nurr1 reporter gene assay, response element NBRE; assay type: cell-based; conditions: result in words, at 1 µM
T4 construct: The full length human nuclear receptor Nurr1 (pcDNA3.1-hNurr1-NE; Addgene plasmid #102363); NE (suffix in the plasmid name); host or cells: HEK293T
T4 sequence (P43354 whole entry): as above
Source text: as §2

[3] = target: T5, Nurr1-RXR heterodimer (DR5) (Homo sapiens, UniProt P43354); assay: Full-length Nurr1 reporter gene assay, response element DR5 with RXRα; assay type: cell-based
T5 construct: The full length human nuclear receptor Nurr1 (pcDNA3.1-hNurr1-NE; Addgene plasmid #102363); NE (suffix in the plasmid name); host or cells: HEK293T
T5 sequence (P43354 whole entry): as above
T5 sequence (P19793 whole entry partner): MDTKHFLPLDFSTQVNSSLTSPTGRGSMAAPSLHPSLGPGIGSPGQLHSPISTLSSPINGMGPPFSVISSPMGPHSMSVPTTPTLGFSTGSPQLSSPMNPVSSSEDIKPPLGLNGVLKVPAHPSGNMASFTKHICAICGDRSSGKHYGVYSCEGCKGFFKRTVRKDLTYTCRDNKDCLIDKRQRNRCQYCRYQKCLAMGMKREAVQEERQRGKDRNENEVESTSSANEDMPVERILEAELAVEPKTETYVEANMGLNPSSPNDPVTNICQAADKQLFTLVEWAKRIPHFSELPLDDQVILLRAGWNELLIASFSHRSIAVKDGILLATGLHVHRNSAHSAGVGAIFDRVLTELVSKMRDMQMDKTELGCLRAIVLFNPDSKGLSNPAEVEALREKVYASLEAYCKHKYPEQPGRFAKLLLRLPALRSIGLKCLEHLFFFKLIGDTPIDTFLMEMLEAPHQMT
Source text: Full-length Nurr1 reporter gene assays. Activation of full length human Nurr1 was studied in transiently transfected HEK293T cells using the reporter plasmids pFR-Luc-NBRE^14, pFR-Luc-POMC^14 or pFR-Luc-DR5^14 each containing one copy of the respective human Nurr1 response element NBRE Nl3, NurRE, or DR5. The full length human nuclear receptor Nurr1 (pcDNA3.1-hNurr1-NE; Addgene plasmid #102363) and, for DR5, RXRα (pSG5-hRXR)^44 were overexpressed. pRL-SV40 (Promega) was used for normalization of transfection efficacy and to observe test compound toxicity. […] After 24 h, medium was changed to Opti-MEM without supplements and cells were transiently transfected using Lipofectamine LTX reagent (invitrogen) according to the manufacturer's protocol. Five hours after transfection, cells were incubated with the test compounds in Opti-MEM supplemented with penicillin (100 U/mL), streptomycin (100 µg/mL) and 0.1% DMSO for 16 h before luciferase activity was measured using the Dual-Glo Luciferase Assay System (Promega) according to the manufacturer's protocol on a Tecan Spark luminometer (Tecan Deutschland GmbH). Firefly luminescence was divided by Renilla luminescence and multiplied by 1000 resulting in relative light units (RLU) to normalize for transfection efficiency and cell growth. Fold activation was obtained by dividing the mean RLU of test compound by the mean RLU of the untreated control. All samples were tested in at least three biologically independent experiments in duplicates. For dose-response curve fitting and calculation of EC50 values, the equation "[Agonist] vs. response -- Variable slope (four parameters)" was used in GraphPad Prism (version 7.00, GraphPad Software).

[4] = system: Nurr1-regulated tyrosine hydroxylase (TH), vesicular amino acid transporter 2 (VMAT2) and superoxide dismutase 2 (SOD2) in astrocytes (T98G); assay: Nurr1-regulated gene expression in T98G cells (qPCR); assay type: cell-based, human; conditions: 0.1 µM, 0.3 µM, mRNA vs. DMSO control

Compound	max. activation (Nurr1)	EC50 (Nurr1)	other results
Cc1cccc(-c2nc3c(Cl)cccn3c2N)c1 [Compound 21]	< 1.2-fold act.	–	–
Nc1c(-c2ccc(C(F)(F)F)cc2)nc2c(Cl)cccn12 [Compound 22]	< 1.2-fold act.	–	–
Nc1c(-c2cccc(C(F)(F)F)c2)nc2c(Cl)cccn12 [Compound 23]	< 1.2-fold act.	–	–
Nc1c(-c2ccc(Cl)c(Cl)c2)nc2c(Cl)cccn12 [Compound 24, 8-Chloro-2-(3,4-dichlorophenyl)imidazo[1,2-a]pyridine-3-amine]	1.8 fold and 1.8±0.1 fold	0.4 µM	increase in potency over 8 (Nurr1): 7 fold; Kd (Nurr1 LBD): 0.7 µM
Cc1ccc(-c2nc3c(Cl)cccn3c2N)cc1C [Compound 25]	1.6±0.1 fold	14 ± 2 µM	–
Cc1nc2c(Cl)cccn2c1NC(=O)c1ccc(-c2ccc(Cl)cc2)o1 [Compound 26]	1.8±0.1 fold	1.6 ± 0.5 µM	Kd (Nurr1 LBD): 0.7 µM
Cc1nc2c(Cl)cccn2c1NC(=O)c1ccc(-c2ccccc2)o1 [Compound 27]	2.1±0.1 fold	4 ± 1 µM	–
Cc1nc2c(Cl)cccn2c1NC(=O)c1ccc(-c2ccccc2)s1 [Compound 28]	2.1±0.1 fold	3.2 ± 0.4 µM	–
Cc1nc2c(Cl)cccn2c1NC(=O)c1ccc(-c2ccccc2)cc1 [Compound 30]	–	–	EC50(Nurr1) (max. activation) (Nurr1; result in words, at 10 µM): inactive (10 µM)
Cc1nc2c(Cl)cccn2c1NC(=O)c1ccc(-c2ccc(C(F)(F)F)cc2)o1 [Compound 31]	–	1.1 ± 0.3 µM	–
Cc1ccc(-c2ccc(C(=O)Nc3c(C)nc4c(Cl)cccn34)o2)cc1 [Compound 32]	2.0±0.2 fold	0.13 ± 0.02 µM	–
Cc1nc2c(Cl)cccn2c1NC(=O)c1ccc(-c2ccc(OC(F)(F)F)cc2)o1 [Compound 33]	–	0.8 ± 0.2 µM	–
COc1ccc(-c2ccc(C(=O)Nc3c(C)nc4c(Cl)cccn34)o2)cc1 [Compound 34]	1.7±0.1 fold	0.16 ± 0.06 µM	–
CNc1ccc(-c2ccc(C(=O)Nc3c(C)nc4c(Cl)cccn34)o2)cc1 [Compound 35]	–	0.3 ± 0.02 µM	–
Cc1nc2c(Cl)cccn2c1NC(=O)c1ccc(-c2ccc(N(C)C)cc2)o1 [Compound 36, N-(8-Chloro-2-methylimidazo[1,2-a]pyridin-3-yl)-5-(4-(dimethylamino)phenyl)furan-2-carboxamide]	–	0.09 ± 0.005 µM	EC50 (Nur77): 0.33 ± 0.04 µM; selectivity ([1]; Nurr1 vs. nuclear receptors outside the NR4A family): > 30 fold; activity outside the NR4A family ([1]; at 3 µM, n=3): no off-target activity; EC50 (Nurr1 homodimer (NurRE)): 0.094 ± 0.003 µM; aq. solubility [2]: 6.8 µg/mL; EC50(NBRE) (Nurr1 monomer (NBRE)): inactive; also recorded: no activation (1 µM); enhancement of potency by bexarotene (factor) ([3]; DR5, 0.1 µM BEX): > 5; EC50 ([3]; with 0.1 µM bexarotene (BEX)): 0.033 µM; EC50 ([3]; without bexarotene, read-out: EC50(DR5)): 0.165 µM; expression of superoxide dismutase 2 (SOD2) [4]: induced expression; expression of tyrosine hydroxylase (TH) [4]: induced expression; expression of vesicular amino acid transporter 2 (VMAT2) [4]: induced expression; Kd (Nurr1 LBD): 0.17 µM
